Test results published in patent US20260021122A1, “CANNABINOIDS AND USES THEREOF IN TREATMENT OF A DISEASE” (TECHNION RESEARCH & DEVELOPMENT FOUNDATION LIMITED, priority 2022, published 2026).

Assays:
B16F10 tumors [1] = test: Mouse tumor model: B16F10 cells transplanted subcutaneously, tumor volume and weight; assay type: in vivo, mice; conditions: CBG 2.5 mg/kg or 3704 3.75 mg/kg intraperitoneally
Experimental: (§1) All procedures involving animals were conducted in accordance with the standards approved by the Technion Animal Care and Use Ethics Committee and the studies adhered to the Technion Code for Experimentation on Animals. To induce tumors, B16F10 cells grown to a confluency of ˜75% were resuspended to a concentration of 1×10^6 cells in 200 ul sterile PBS and transplanted subcutaneously into the right flank of 8-10-week-old female WT C57B6/L mice (Envigo, 16.8±0.78 g). After either 24 hours or 3 days, mice were randomly divided into groups and treated as indicated with either a vehicle of Cannabis extract solvent (18:1:1 ratio of DDW+0.9% NaCl, Sigma, Cat #S7653; Cremophor® EL, Cat #238470; Ethanol, Sigma, #Cat 111727), CAN (100 mg/kg), synthetic CBG (2.5 mg/kg) or 3704 (3.75 mg/kg) for 5 days, then 2 days off and again for 4 days. Tumor volume was measured from day 10 to 14 (endpoint) using a vernier caliper and calculated according to the formula […] and all tumors were weighed at the endpoint of the experiments with an analytical scale.

CSF-1 = test: ELISA of secreted CSF-1 in media of B16F10 cells; assay type: cell-based, murine; conditions: summary statement of the discussion
Experimental: The media from B16F10 and A375 cell lines, or homogenates from B16F10 tumors, that were treated as indicated for 24 hours, were collected and the protein concentration of MCP-1, MIP-2, C-C Motif Chemokine Ligand 5 (CCL5), and CSF-1 were measured by Quantikine Mouse M-CSF Immunoassay solid-phase ELISA kit (R&D systems, Cat #MMC00) as described in the manufacture's protocol.

CD8+ T-cells = test: BM-MDSCs CD8+ T-cell co-culture suppression assay; assay type: cell-based, mice
Experimental: Generated bone marrow-MDSC (BM-MDSCs) were treated with conditioned media for 24 hours, then sorted into MO-MDSC and PMN-MDSC subsets. Concurrently, CD8+ T-cells were isolated from the spleens of healthy female WT C57BL/6 mice (8-12-weck-old). To isolate CD8+ T-cells, spleens were mechanically disintegrated and filtered through a 70 um filter (Alex Red Ltd., Cat #SO SCS702), the red blood cells were lysed with the red blood lysis buffer (Biological industries, Cat #01-888-1B). Then, CD8+ T-cells were isolated using the EasySep Mouse CD8+T-cell isolation kit (Stemcell Technologies, Cat # 19853) according to the manufacturer's protocol. The isolation purity was measured by staining cells before and after isolation with CD8-PECY7 (BioLegend, Cat #100722, Clone 53-6.7) by flow cytometry.
Post-sorted MDSC subpopulations were co-cultured in complete RPMI with CD8+ T-cells that are activated with Dynabeads® Mouse T-Activator CD3/CD28 kit (Cat # 11456D; 12.5 μl/1×10^6 cells). After 48 hours, the activation beads were removed and cells were incubated with eBioscience Cell Stimulation Cocktail (Invitrogen, Cat #00-4970-93) for 3 hours and then also with BD GolgiStop™ Protein Transport Inhibitor (BD Biosciences, Cat #51-2092KZ) for the detection of IFN-γ. Intracellular staining of IFN-γ in CD8+ T-cells was achieved by using the BD Cytofix/Cytoperm™ Kit (BD Biosciences, Cat #554714) as stated in the manufacturer's instructions and then staining with IFN-γ-FITC (BioLegend, Cat #505806, Clone XMG1.2) and GranzymeB-FITC (BioLegend, Cat #372206, clone QA16A02).

B16F10 tumors [2] = test: Myeloid cell and CD3+ T-cell frequencies in excised B16F10 tumors (spectral flow cytometry); assay type: in vivo, mice; conditions: CBG 2.5 mg/kg or 3704 3.75 mg/kg i.p., tumors day 14
Experimental: as §1
To prepare single-cell suspensions from the tumors, on day 14 the tumors were excised from the mice and placed in Hanks' Balanced Salt solution (HBSS, Sigma; Cat #H6648) containing 20 mg/ml DNase I (Sigma, Cat #D5025), 1 mg/ml collagenase D from Clostridium histolyticum (Sigma-Aldrich, Cat #C5138) and 0.1 mg/ml hyaluronidase (Sigma-Aldrich, Cat #6254). Tumors were mechanically digested using a scalpel and the gentleMACS™M Dissociator (Miltenyi Biotec). The resulting solution was filtered through a 100 μm filter (Alex Red Ltd. Cat #SO SCS1002) and centrifuged for 10 minutes at 400×g. The supernatant was further used for cytokine and chemokine concentration measurements. For the characterization of myeloid cell frequencies in tumors, the cell pellet was further processed as follows: red blood cells were lysed using the red blood lysis buffer (Biological industries, Cat #01-888-1B), which was neutralized by washing with PBS+2% FBS and centrifuging 10 minutes at 400×g. After centrifugation, cells were resuspended in 40% percoll gradient solution (prepared from 100% percoll, Cytiva, #17089101) and then 80% percoll was added on top of the 40% solution without mixing. The cell suspension was centrifuged at room temperature for 30 minutes without acceleration and break at 500×g. Cells were isolated from the interphase between the 40% and 80% percoll solutions and washed with PBS +2% FBS. Finally, cells were stained with extracellular markers for CD3+ T-cells and myeloid cells, and subpopulation frequency was measured by spectral flow cytometry using Cytek® Aurora (Cytek Biosciences). […]

[3] = MO-MDSCs exposed to CM of treated B16F10, 48 hours co-incubation

Structure (SMILES): CCCCCc1cc(O)c(C/C=C(\C)CCC=C(C)C)c(O)c1 [CBG, cannabigerol]
- Tumor weight on day 14 compared to vehicle (B16F10 tumors [1]; nine injections): weighed significantly less
- Tumor volume compared to the vehicle-treated group (B16F10 tumors [1]; nine injections from day 3, measured daily day 10 to 14): significantly lower in the CBG-treated group already at day 12
- efficiency of CSF-1 secretion reduction, comparison between treatments (discussion) (CSF-1): reduce CSF-1 secretion more efficiently than the psychoactive THC
- CD8+ IFN-γ expression, co-culture with MO-MDSCs (CD8+ T-cells; [3]): restoration of CD8+ IFN-γ expression in a dose-dependent manner
- GrzB expression in CD8+ T-cells co-cultured with MO-MDSCs (CD8+ T-cells; [3]): trend of restored GrzB expression
- GrzB expression in CD8+ T-cells co-cultured with PMN-MDSCs (CD8+ T-cells; PMN-MDSC exposed to CM of treated B16F10, 48 hours co-incubation): trend of reduced GrzB expression
- CD8+ IFN-γ expression, co-culture with PMN-MDSCs (CD8+ T-cells; PMN-MDSCs exposed to CM of treated B16F10, 48 hours co-incubation): no significant changes with either of the treatments
- CD3 T-cells frequencies in tumors relative to vehicle control (B16F10 tumors [2]): trend of increase in T-cells frequencies
- frequencies of MO-MDSC and PMN-MDSC subpopulations in tumors (B16F10 tumors [2]): did not affect
- frequency of M2 macrophages in tumors relative to vehicle control (B16F10 tumors [2]): trend of a decreased frequency in M2 macrophages
- ratio between M1 and M2 macrophages (M2/M1) relative to vehicle control (B16F10 tumors [2]; calculated for each mouse): trend of decreased ratio
